Consider four molecules from patent US20090061009A1, “Composition and Method of Treatment of Bacterial Infections” (priority 2007, published 2009).

One test concerns glioblastoma. Put plainly: Glioblastoma model, survival. In kind it is in vivo. The settings on record: day 100 after tumor inoculation, same dose and schedule.
In another test the test system is E. coli ATCC 25922. Put plainly: Sepsis (septicemia) model in mice. In kind it is in vivo. As for the experimental part:
Sepsis (septicemia) model: Escherichia coli O157 was chosen as a model infection being one of the most common nosocomial pathogens. Female BALB/C mice were infected by the intraperitoneal injection of 2.5×10^8 cells (LD90). Treatment started 2 hours post bacterial inoculation
E. coli ATCC 25922 was stored at −80° C. until use in this study. The bacterium was transferred onto Trypticase Soy Agar (TSA) plates and incubated for 18 h at 37° C. A suspension of the bacterium was prepared in PBS and added to sterile 5% hog mucin. An aliquot of the suspension was added to 5% hog gastric mucin to obtain the required concentration of inoculum (3.5×10^6 CFU/mL). Each mouse was inoculated with 0.5 mL of the appropriate inoculum preparation by IP injection. 2 hours later mice were treated with a single injection of the appropriate concentration of Gentamicin sulfate in dose 10 mg/kg (calculated by base).

The subject of another test is MAC. The conditions noted are these: 100 mg/kg IM five days a week for four weeks; cited from earlier work.
For test [1], the system named is Mycobacterium tuberculosis strain H37Rv (ATCC 27294). Kind of test: Tuberculosis model in BALB/c mice. The settings on record: for Survival rate, % D14: day 14; for Survival rate, % D28 / Bacterial count in lungs, log CFU D28: day 28; for Bacterial count in lungs, log CFU D28: 10.06 ± 0.304 at D1. In kind it is in vivo.
Where [2] appears, read: BALB/c mice, 100 mg/kg IP 2/week, cumulative 800 mg/kg SM base.
[3] abbreviates: BALB/c mice, 200 mg/kg IP 5/week, cumulative 4000 mg/kg SM base.

Where a name gives a salt, the structure may show the parent alone.

The molecule `COc1cccc2c1C(=O)c1c(O)c3c(c(O)c1C2=O)C[C@@](O)(C(=O)CO)C[C@@H]3O[C@H]1C[C@H](N)[C@H](O)[C@H](C)O1` [Doxorubicin in solution, Doxorubicin] had a survival rate in the test on glioblastoma of 0%.
Regarding “Gentamicin sulfate [Gentamicin sulfate solution]”, in the test on E. coli ATCC 25922 (10 mg/kg single injection, day 2), the “Day of death after inoculation: 2 (number of deaths)” value worked out at 3. In addition, in the test on E. coli ATCC 25922 (10 mg/kg single injection, day 3), the “Day of death after inoculation: 3 (number of deaths)” value was 1. The “Day of death after inoculation: 4 (number of deaths)” value in the test with E. coli ATCC 25922 (10 mg/kg single injection, day 4) is listed as 1. Further, in the test with E. coli ATCC 25922 (E.Coli induced septicemia in mice, untreated 11%), the Survival rates is 50%. For the same molecule, in the test on E. coli ATCC 25922 (mice, 1.8 × 10^6 E. coli per mouse IP, single injection 10 mg/kg (as base) 2 hours later, observed six days), the “No. dead/No. treated” value is 5/10.
As for `[H]/N=C(/N)N[C@H]1[C@H](O)[C@@H](O)[C@H](O[C@@H]2O[C@@H](C)[C@](O)(C=O)[C@H]2O[C@@H]2O[C@@H](CO)[C@H](O)[C@@H](O)[C@@H]2NC)[C@@H](N/C(N)=N\[H])[C@@H]1O` [Streptomycin], the “bacterial counts of MAC from spleen, lungs and liver” value with MAC was “significant reduction”.
Take `[H]/N=C(/N)N[C@H]1[C@H](O)[C@@H](O)[C@H](O[C@@H]2O[C@@H](C)[C@](O)(C=O)[C@H]2O[C@@H]2O[C@@H](CO)[C@H](O)[C@@H](O)[C@@H]2NC)[C@@H](N/C(N)=N\[H])[C@@H]1O` [SM USP solution, Streptomycin sulfate]: the survival rate amounted to 58% in test [1] (800 mg cumulative dose of SM) and 92% in test [1] (positive control, cumulative 4000 mg SM). In addition, the “Survival rate, % D14” value stood at 83% in test [1] (setting [2]) and 92% in test [1] (setting [3]). Besides, the “Survival rate, % D28” value in test [1] (setting [2]) is 58%; in test [1] (setting [3]), 92%. The “Bacterial count in lungs, log CFU D28” value was 8.37 ± 0.367 log CFU in test [1] (BALB/c mice, 100 mg/kg IP 2/week) and 7.57 ± 0.268 log CFU in test [1] (BALB/c mice, 200 mg/kg IP 5/week). For the same molecule, the “Bacterial count in lungs, log CFU D56” value in test [1] (BALB/c mice, 200 mg/kg IP 5/week for 28 days, day 56) is recorded as 8.86 ± 0.18 log CFU.
